Test [1] addresses T1, GST-hPPARγ2 (Homo sapiens, UniProt P37231).
T1 construct: the complete cDNA of the […] human PPARs were cloned into pGEX4T2; made in house; host or cells: Escherichia coli BL21 (DE3)
T1 sequence (P37231 1-505): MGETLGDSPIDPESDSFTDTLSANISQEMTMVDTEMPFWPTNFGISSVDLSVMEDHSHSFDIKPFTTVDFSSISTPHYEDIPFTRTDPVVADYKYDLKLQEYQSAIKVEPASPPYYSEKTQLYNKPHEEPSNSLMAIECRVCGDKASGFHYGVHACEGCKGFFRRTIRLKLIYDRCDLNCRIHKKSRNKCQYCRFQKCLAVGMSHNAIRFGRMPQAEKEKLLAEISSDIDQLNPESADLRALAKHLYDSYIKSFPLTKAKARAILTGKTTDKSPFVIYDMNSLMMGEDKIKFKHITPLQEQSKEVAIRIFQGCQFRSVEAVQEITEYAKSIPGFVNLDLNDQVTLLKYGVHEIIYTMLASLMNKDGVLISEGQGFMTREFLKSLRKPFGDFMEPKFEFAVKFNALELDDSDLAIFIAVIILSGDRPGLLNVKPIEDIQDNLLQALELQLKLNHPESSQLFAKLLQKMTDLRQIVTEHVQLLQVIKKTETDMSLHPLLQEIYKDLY
The test can be described thus: Assay of binding to the PPARγ2 ([3H]BRL-49853 displacement). The protocol:
Assay of Binding to the PPARγ2
The cDNA encoding for the open reading frame of the hPPARγ2 is amplified by PCR (polymerase chain reaction) and inserted in the plasmid pGEX-4T-2.
The reaction mixture was transferred to a Multiscreen Durapore (Millipore) microplate containing glutathione-Sepharose 4B in every well. The reaction mixture was left to incubate with the resin during 10 min, and then centrifuged at 735 g during 2 min. To dissociate the receptor bound to the resin, reduced glutathione 10 mM is added and incubated during 10 min. The receptor was eluted by centrifugation. Then, 800 μL of scintillation liquid were added to the elution and the contained radioactivity was quantified by liquid scintillation spectroscopy (Microbeta Wallac, Perkin Elmer).

Test [2] addresses T2, GST-hPPARα (Homo sapiens, UniProt Q07869).
T2 construct: the complete cDNA of the […] human PPARs were cloned into pGEX4T2; made in house; host or cells: Escherichia coli BL21 (DE3)
T2 sequence (Q07869 1-468): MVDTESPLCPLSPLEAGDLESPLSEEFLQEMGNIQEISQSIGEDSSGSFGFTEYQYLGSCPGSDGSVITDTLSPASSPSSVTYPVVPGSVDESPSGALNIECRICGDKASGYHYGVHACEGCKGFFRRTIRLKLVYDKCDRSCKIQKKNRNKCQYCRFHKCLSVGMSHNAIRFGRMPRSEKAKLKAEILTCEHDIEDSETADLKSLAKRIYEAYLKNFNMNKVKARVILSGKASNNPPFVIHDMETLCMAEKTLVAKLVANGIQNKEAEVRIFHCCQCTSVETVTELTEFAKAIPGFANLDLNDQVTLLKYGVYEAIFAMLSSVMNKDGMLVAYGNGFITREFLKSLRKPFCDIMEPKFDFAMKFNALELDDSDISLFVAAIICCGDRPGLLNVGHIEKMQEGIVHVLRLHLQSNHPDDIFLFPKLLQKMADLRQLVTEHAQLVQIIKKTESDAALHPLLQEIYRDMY
The test can be described thus: GST-hPPARα binding ([3H]-GW2433 displacement). The text has this:
Cloning of Human PPARα, PPARδ and PPARγ2
The human PPARs cDNAs were amplified through RT-PCR. For hPPARα, RNA was obtained from HepG2 cells treated with linoleic acid; for h PPARδ, RNA was obtained from untreated HepG2 cells; for hPPARγ2, RNA was obtained from human white adipose tissue. Each amplified fragment was cloned into pBluescript (Stratagene®) and sequenced. One clone for each construction was selected and used as template for further subcloning and PCR amplifications.
GST-Fused Protein Construction
To generate these chimeric proteins, the complete cDNA of the […] human PPARs were cloned into pGEX4T2 (Amersham Biosciences). The fragment was obtained from the pBluescript-cDNAs clones digested with endonucleases. To assess the plasmid identity and to ensure the in-phase cloning of the proteins, pGEXs constructions were sequenced. […] Receptor purity was visualized by SDS-PAGE and protein content was determined by Bradford method. […]
Using 96-well culture plates, PPARα or PPARδ (5 μg) were diluted to a total volume of 100 μL with buffer consisting of 50 mM HEPES (pH: 7.0), 50 mM KCl, 5 mM EDTA and 10 mM DTT, in the presence of [3H]-GW2433 (100 and 50 nM for PPARα and PPARδ, respectively). […] Eluted radioactivity was quantitated by liquid scintillation counting in a Microbeta counter (Perkin Elmer).

The target of test [3] is T3, PPARγ LBD (Homo sapiens, UniProt P37231).
T3 construct: expressed in transfected cells; host or cells: COS-7
T3 sequence (P37231 238-503 limits assumed): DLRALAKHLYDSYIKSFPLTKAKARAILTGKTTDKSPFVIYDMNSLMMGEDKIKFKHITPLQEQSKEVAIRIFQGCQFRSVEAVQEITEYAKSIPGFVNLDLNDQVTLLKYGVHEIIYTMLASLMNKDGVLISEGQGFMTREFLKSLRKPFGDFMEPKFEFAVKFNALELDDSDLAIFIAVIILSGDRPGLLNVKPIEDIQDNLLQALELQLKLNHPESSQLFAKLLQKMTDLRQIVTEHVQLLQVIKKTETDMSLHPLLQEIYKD
The test can be described thus: LBD-hPPARs transactivation assay (GAL4-LBD luciferase reporter in COS-7 cells). Format: cell-based. The note with it: 48 h. The text has this: LBD-hPPARs Transactivation Assay
COS-7 cells were cultivated in 24-well plates and transfected with the pFACMV plasmids that encode the chimeric proteins containing the GAL4 DNA binding domain fused to the PPARγ LBD. The reporter plasmid for the foregoing constructions was pFR-Luc, which contains five repetitions of the GAL4-response element in front of a promoter that controls the transcription of the luciferase gene. Lipofectamine was used as a transfection agent.
The plasmids of the chimeric receptors and the reporter gene were inserted in the cells by transitory transfection in COS-7 cells in culture.
In general terms: Reporter assays use an easily measured gene product as a stand-in for the process of interest.

[4] abbreviates: Table 19, GST-hPPARγ2, [3H]BRL-49853 100 nM, read-out: Affinity PPARγ(1).

Where two headings read alike, the source gives them in different places.

Turning to `O=C(N[C@@H](Cc1ccc(OCc2ccccc2)cc1)C(=O)O)c1ccc(OCc2ccccc2-c2ccccc2)cc1` [Example 184, (2S)-3-(4-Benzyloxyphenyl)-2-[4-(biphenyl-2-ylmethoxy)benzoylamino]propionic acid], the Ki is < 1000 nM in test [1] and > 3000 nM in test [2]. For the same molecule, the “Functional activity PPARγ” value in test [3] is reported as “Antagonist”.

For `CCCCOc1ccc(COc2ccc(C(=O)N[C@@H](CC3CCCCC3)C(=O)O)cc2)cc1` [Example 237, (2S)-2-[4-(4-Butoxybenzyloxy)benzoylamino]-3-cyclohexylpropionic acid], in test [1] (setting [4]), the Ki was < 1000 nM. The “Functional activity PPARγ” value in test [3] is “Partial agonist”.

Regarding `CCCCc1ccc(COc2ccc(C(=O)N[C@@H](CC3CCCCC3)C(=O)O)cc2)cc1` [Example 210, (2S)-2-[4-(4-Butylbenzyloxy)benzoylamino]-3-cyclohexylpropionic acid], in test [1] (setting [4]), the Ki was < 1000 nM. Moreover, the “Functional activity PPARγ” value in test [3] is “Agonist”.

With `Cc1nc2ccccc2nc1OCCOc1ccc(C(=O)N[C@@H](Cc2ccc(F)cc2)C(=O)O)cc1` [Example 192, (2S)-3-(4-Fluorophenyl)-2-{4-[2-(3-methylquinoxalin-2-yloxy)ethoxy]benzoylamino}propionic acid], the Ki in test [1] (setting [4]) is > 3000 nM. Further, the “Functional activity PPARγ” value in test [3] is given as “Partial agonist”.

As to `Cc1ccccc1COc1ccc(C(=O)N[C@@H](Cc2ccc(OCc3ccccc3)cc2)C(=O)O)cc1` [Example 243, (2S)-3-(4-Benzyloxyphenyl)-2-[4-(2-methylbenzyloxy)benzoylamino]propionic acid], the Ki in test [1] (setting [4]) is < 1000 nM. In addition, the “Functional activity PPARγ” value in test [3] was “Antagonist”.

For `O=C(N[C@@H](Cc1ccc(OCc2ccccc2)cc1)C(=O)O)c1ccc(OCCCc2ccccc2)cc1` [Example 153, (2S)-3-(4-Benzyloxyphenyl)-2-[4-(3-phenylpropoxy)benzoylamino]propionic acid], the Ki in test [1] (setting [4]) was in the range of 1000 to 3000 nM. Moreover, the “Functional activity PPARγ” value in test [3] is reported as “Partial agonist”.

On to `O=C(NC(Cc1ccc(-c2ccccc2)cc1)C(=O)O)c1ccc(OCCN(Cc2ccccc2)Cc2ccccc2)cc1` (stereo not shown) [Example 136, 3-Biphenyl-4-yl-2-[4-(2-dibenzylaminoethoxy)benzoylamino]propionic acid], for which the Ki in test [1] (setting [4]) was 1000 to 3000 nM. Moreover, the “Functional activity PPARγ” value in test [3] is “Antagonist”.

Regarding `Cc1nc2ccccc2nc1OCCOc1ccc(C(=O)N(CCC(=O)O)Cc2cccc(OCc3ccccc3)c2)cc1` [Example 170, 3-{(3-Benzyloxybenzyl)-{4-[2-(3-methylquinoxalin-2-yloxy)ethoxy]benzoyl}amino}propionic acid], in test [1] (setting [4]), the Ki was in the range of 1000 to 3000 nM. The “Functional activity PPARγ” value in test [3] was “Antagonist”.

As to `Cc1nc2ccccc2nc1OCCOc1ccc(C(=O)N[C@@H](Cc2ccc(OCc3ccccc3)cc2)C(=O)N(C)C)cc1` [Example 267, N-[(1S)-2-(4-Benzyloxyphenyl)-1-dimethylcarbamoylethyl]-4-[2-(3-methylquinoxalin-2-yloxy)ethoxy]benzamide], the Ki in test [1] (setting [4]) lay in the range of 1000 to 3000 nM. Further, the “Functional activity PPARγ” value in test [3] is “Partial agonist”.

Take `O=C(N[C@@H](Cc1ccc(OCc2ccccc2)cc1)C(=O)O)c1cccc(OCc2cccc(OCc3ccccc3)c2)c1` [Example 145, (2S)-2-[3-(3-Benzyloxybenzyloxy)benzoylamino]-3-(4-benzyloxyphenyl)propionic acid]: the Ki in test [1] (setting [4]) lay in the range of 1000 to 3000 nM. Besides, in test [3], the “Functional activity PPARγ” value is reported as “Antagonist”.

In the case of `O=C(O)CN(Cc1cccc(Oc2ccccc2)c1)C(=O)c1ccc(OCCN(Cc2ccccc2)Cc2ccccc2)cc1` [Example 146, {[4-(2-Dibenzylaminoethoxy)benzoyl]-(3-phenoxybenzyl)amino}acetic acid], the Ki in test [1] (setting [4]) is 1000 to 3000 nM. In addition, the “Functional activity PPARγ” value in test [3] is recorded as “Antagonist”.

Take `O=C(NC(Cc1cccc(Oc2ccccc2)c1)C(=O)O)c1ccc(OCCN(Cc2ccccc2)Cc2ccccc2)cc1` (stereo not shown) [Example 141, 2-[4-(2-Dibenzylaminoethoxy)benzoylamino]-3-(3-phenoxyphenyl)propionic acid]: the Ki in test [1] (setting [4]) lay within 1000 to 3000 nM. Also, the “Functional activity PPARγ” value in test [3] is “Antagonist”.

The values above are taken from patent US20060160894A1, “Benzamides as ppar modulators” (LABORATORIOS S.A.L.V.A.T.,S.A., priority 2003, published 2006).
